Measured values reported in patent US12391664B2, “GluN2C/D subunit selective antagonists of the N-methyl-D-aspartate receptor” (Emory University, priority 2018, dated 2025).
Read-outs that look alike come from different tables or passages of the source.

Legend:
Assay type in all cases: cell-based
[1] = target: T1, recombinant rat GluN1/GluN2D (Rattus norvegicus, UniProt P35439+Q62645); assay: Two-electrode voltage-clamp recordings in Xenopus laevis oocytes, GluN2D
T1 construct: expressed in transfected cells; host or cells: Xenopus laevis oocytes injected with cRNA (GluN1:GluN2 ratio 1:2)
T1 sequence (Q62645 28-1323, other chains not shown): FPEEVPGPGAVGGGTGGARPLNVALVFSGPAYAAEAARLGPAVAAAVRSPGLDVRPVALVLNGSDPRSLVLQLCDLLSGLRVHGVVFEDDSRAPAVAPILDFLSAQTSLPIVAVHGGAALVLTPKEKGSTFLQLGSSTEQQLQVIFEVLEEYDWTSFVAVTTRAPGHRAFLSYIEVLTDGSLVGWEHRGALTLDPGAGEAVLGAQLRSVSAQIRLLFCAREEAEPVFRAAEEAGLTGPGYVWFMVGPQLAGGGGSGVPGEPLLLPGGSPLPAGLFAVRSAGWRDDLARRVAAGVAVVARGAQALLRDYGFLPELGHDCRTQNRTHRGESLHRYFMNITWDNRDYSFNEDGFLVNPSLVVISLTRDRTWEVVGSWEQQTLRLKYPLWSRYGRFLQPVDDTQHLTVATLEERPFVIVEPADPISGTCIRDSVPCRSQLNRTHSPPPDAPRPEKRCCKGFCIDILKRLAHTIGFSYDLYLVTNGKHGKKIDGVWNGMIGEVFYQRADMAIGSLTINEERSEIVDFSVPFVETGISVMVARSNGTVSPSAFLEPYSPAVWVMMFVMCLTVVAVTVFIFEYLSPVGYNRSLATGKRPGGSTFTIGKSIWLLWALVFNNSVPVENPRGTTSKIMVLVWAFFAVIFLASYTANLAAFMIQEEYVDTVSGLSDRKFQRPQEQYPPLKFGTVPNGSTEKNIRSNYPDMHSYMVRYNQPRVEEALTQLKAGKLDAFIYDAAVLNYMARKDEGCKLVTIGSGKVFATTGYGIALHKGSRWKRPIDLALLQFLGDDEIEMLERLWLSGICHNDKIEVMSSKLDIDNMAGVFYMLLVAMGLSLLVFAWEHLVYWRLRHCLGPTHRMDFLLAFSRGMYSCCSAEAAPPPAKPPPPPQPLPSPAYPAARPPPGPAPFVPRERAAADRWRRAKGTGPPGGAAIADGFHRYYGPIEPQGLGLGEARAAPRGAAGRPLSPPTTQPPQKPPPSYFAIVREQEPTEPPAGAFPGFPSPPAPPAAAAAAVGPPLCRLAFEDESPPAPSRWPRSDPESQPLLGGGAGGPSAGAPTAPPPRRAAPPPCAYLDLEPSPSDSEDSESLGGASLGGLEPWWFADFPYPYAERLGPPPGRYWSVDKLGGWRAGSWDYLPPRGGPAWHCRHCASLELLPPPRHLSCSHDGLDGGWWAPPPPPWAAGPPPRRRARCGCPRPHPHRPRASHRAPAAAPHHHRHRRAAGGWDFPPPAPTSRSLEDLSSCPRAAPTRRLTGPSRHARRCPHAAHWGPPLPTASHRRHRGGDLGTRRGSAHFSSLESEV
Procedure: (§1) All target compounds were evaluated for activity by the Traynelis laboratory at Emory University using two-electrode voltage-clamp recordings performed in Xenopus laevis oocytes expressing recombinant GluN2A-D subunits (Table 1). […] Two ester compounds 997-65 and 997-66 also performed no inhibition at GluN2A to GluN2D receptors. […] Consequently, for the compounds that Acker et al. already published, it was necessary to increase the concentration to 100 μM when collecting data for a concentration effect curve. […] Therefore, under this condition, we can only conclude that compound 997-67 remained potent at GluN2C/D-containing receptors, but its selectivity over GluN2A- and GluN2B-containing receptors could not be compared to 997-57. […] Finally, replacing the carboxylic acid to the bio-isostere amide yielded compounds 997-96 and 997-115, which dropped the potency 2- to 4-fold in comparison to their corresponding acids 997-74 and 997-114.
(§2) Two-electrode voltage-clamp recordings were performed in Xenopus laevis oocytes that were injected with mRNA to express recombinant rat GluN1/GluN2A, GluN1/GluN2B, GluN1/GluN2C, and GluN1/GluN2D. The recordings using unfertilized oocytes from Xenopus laevis were permitted by Emory University Institutional Animal Care and Use Committee (IACUC). An automatic injector (Nanoject II, Drummond Scientific) was used for cRNA injection using the pipettes filled with mineral oil. The cRNA that transcribed in vitro via the mMessage Machine kit (Ambion) was diluted with nuclease-free water, and then injected at GluN1/GluN2 with a ratio of 1:2. The oocytes were stored in Barth's solution that contained 88 mM NaCl, 5.0 mM Tris-HCl, 2.4 mM NaHCO3, 1.0 mM KCl, 0.84 mM MgSO4, 0.41 mM CaCl2, 0.33 mM Ca(NO3)2, 0.1 mg/ml gentamycin sulfate, 1.0 U/ml penicillin, and 1 μg/ml streptomycin at a pH of 7.4 and temperatures of 15-17° C. for two to five days before the two-electrode voltage-clamp recordings. When recording, the oocytes were placed in a perfusion chamber and continually washed with the recording solution comprised of 90 mM NaCl, 1.0 mM KCl, 0.50 mM BaCl2, 0.005 mM EDTA, and 10 mM HEPES at a pH of 7.4 and a temperature of 23° C. Glass electrodes with a tip resistance of 0.5 to 2.5 MΩ were obtained from thin-walled glass capillary tubes. Voltage electrodes and current electrodes were filled with 0.3 M and 3.0 M KCl, respectively. The recordings were executed with the oocytes membrane potential holding at −40 m V by an OC-725 amplifier (Warner Instrument Co). All compounds were dissolved in dimethyl sulfoxide (DMSO) as 20 mM stock solutions and future diluted to reach the desired concentration (0.05-0.5% (vol/vol) DMSO) in recording solution comprised of 30 μM glycine and 100 μM glutamate. Each compound was recorded 3-7 times in the least 4 oocytes from at least 2 different Xenopus laevis.
(§3) To evaluate the inhibition of compounds, the concentration-response curve was fitted with the average two-electrode voltage-clamp recording results with the equation
(§4) [formula] • where IC50 is the concentration of compounds that inhibit half maximal of the current response and N is the Hill slope.

[2] = target: T2, recombinant rat GluN1/GluN2D (Rattus norvegicus, UniProt Q62645); assay: as above
T2 construct: expressed in transfected cells; host or cells: Xenopus laevis oocytes injected with cRNA (GluN1:GluN2 ratio 1:2)
T2 sequence (Q62645 28-1323, other chains not shown): as above
Procedure: as §1, §2, §3, §4

[3] = target: T3, recombinant rat GluN1/GluN2C (Rattus norvegicus, UniProt P35439+Q00961); assay: Two-electrode voltage-clamp recordings in Xenopus laevis oocytes, GluN2C; conditions: oocytes, 100 μM glutamate and 30 μM glycine; read-out: GluN2C IC50
T3 construct: expressed in transfected cells; host or cells: Xenopus laevis oocytes injected with cRNA (GluN1:GluN2 ratio 1:2)
T3 sequence (Q00961 20-1237, other chains not shown): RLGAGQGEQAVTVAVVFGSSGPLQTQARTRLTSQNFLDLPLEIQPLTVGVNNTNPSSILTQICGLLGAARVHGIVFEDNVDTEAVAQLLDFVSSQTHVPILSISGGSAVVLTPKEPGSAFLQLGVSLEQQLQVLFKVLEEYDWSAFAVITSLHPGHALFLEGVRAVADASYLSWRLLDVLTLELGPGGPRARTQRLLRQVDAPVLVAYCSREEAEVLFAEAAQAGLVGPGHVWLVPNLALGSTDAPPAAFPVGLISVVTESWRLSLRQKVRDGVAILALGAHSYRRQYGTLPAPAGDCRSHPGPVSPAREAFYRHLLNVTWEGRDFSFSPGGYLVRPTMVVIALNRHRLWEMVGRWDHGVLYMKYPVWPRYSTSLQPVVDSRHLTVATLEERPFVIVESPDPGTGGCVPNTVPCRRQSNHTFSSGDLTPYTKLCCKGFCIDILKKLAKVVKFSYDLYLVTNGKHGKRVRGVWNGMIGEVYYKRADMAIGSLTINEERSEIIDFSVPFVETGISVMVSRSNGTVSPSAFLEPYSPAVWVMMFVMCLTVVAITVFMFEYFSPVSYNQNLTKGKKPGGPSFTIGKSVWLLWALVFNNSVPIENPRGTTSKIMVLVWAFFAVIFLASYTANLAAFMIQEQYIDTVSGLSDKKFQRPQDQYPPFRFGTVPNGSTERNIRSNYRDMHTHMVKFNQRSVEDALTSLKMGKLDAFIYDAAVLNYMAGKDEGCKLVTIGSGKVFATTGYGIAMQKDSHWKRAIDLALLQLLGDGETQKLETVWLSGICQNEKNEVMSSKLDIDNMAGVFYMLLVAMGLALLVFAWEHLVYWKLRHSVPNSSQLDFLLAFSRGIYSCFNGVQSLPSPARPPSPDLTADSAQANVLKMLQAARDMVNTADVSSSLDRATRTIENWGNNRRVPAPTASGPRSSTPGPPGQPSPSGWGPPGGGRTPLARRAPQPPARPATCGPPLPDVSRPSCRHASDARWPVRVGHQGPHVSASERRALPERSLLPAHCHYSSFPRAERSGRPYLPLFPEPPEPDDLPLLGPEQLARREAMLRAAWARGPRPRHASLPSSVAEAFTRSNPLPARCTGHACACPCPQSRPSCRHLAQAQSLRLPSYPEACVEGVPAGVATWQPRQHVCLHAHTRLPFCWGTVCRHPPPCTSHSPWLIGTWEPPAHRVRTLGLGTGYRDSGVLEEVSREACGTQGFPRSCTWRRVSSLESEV
Procedure: as §1, §2, §3, §4

[4] = target: T4, recombinant rat GluN1/GluN2B (Rattus norvegicus, UniProt P35439+Q00960); assay: Two-electrode voltage-clamp recordings in Xenopus laevis oocytes, GluN2B; conditions: oocytes, 100 μM glutamate and 30 μM glycine
T4 construct: expressed in transfected cells; host or cells: Xenopus laevis oocytes injected with cRNA (GluN1:GluN2 ratio 1:2)
Procedure: as §1, §2, §3, §4

[5] = target: T5, recombinant rat GluN1/GluN2A (Rattus norvegicus, UniProt Q00959); assay: Two-electrode voltage-clamp recordings in Xenopus laevis oocytes, GluN2A; conditions: oocytes, 100 μM glutamate and 30 μM glycine
T5 construct: expressed in transfected cells; host or cells: Xenopus laevis oocytes injected with cRNA (GluN1:GluN2 ratio 1:2)
T5 sequence (Q00959 23-1464, other chains not shown): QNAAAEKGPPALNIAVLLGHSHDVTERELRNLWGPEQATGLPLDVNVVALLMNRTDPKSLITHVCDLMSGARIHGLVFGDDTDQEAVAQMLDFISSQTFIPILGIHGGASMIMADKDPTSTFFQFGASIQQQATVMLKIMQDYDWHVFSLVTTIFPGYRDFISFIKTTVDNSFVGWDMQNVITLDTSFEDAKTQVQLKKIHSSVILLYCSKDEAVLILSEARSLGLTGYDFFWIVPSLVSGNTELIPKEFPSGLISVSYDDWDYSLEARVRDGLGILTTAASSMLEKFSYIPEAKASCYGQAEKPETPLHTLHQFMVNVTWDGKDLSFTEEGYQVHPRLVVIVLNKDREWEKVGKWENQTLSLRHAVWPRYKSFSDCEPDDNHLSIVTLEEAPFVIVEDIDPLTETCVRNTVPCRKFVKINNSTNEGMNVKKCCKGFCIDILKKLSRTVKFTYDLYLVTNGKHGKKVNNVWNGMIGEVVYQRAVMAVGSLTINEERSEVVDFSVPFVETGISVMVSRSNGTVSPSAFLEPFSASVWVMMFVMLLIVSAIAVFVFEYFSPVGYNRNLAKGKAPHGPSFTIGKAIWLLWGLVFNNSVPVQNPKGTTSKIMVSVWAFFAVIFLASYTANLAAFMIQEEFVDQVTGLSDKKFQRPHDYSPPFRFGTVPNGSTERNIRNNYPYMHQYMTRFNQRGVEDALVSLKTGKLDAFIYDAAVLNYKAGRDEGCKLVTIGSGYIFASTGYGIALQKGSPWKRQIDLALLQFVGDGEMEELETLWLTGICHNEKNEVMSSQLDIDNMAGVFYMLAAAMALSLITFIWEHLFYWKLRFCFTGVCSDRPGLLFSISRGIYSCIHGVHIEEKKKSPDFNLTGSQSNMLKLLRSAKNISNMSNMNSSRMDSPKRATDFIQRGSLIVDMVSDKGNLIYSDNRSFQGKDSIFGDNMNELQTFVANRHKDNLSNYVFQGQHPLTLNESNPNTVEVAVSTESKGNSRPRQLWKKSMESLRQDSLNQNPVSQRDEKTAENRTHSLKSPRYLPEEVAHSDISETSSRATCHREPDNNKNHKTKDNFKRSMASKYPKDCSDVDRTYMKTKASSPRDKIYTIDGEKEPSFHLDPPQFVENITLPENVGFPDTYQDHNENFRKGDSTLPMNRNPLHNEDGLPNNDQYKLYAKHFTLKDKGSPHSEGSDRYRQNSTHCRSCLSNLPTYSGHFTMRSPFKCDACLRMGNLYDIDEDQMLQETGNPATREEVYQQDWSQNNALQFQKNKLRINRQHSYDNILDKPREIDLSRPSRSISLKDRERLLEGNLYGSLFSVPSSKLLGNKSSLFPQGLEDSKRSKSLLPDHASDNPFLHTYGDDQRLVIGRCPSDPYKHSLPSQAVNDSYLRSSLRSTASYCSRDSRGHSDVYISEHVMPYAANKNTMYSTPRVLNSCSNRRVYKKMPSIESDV
Procedure: as §1, §2, §3, §4

[6] = target: T6, recombinant rat GluN1/GluN2B (Rattus norvegicus, UniProt Q00960); assay: Two-electrode voltage-clamp recordings in Xenopus laevis oocytes, GluN2B; conditions: oocytes, 100 μM glutamate and 30 μM glycine
T6 construct: expressed in transfected cells; host or cells: Xenopus laevis oocytes injected with cRNA (GluN1:GluN2 ratio 1:2)
Procedure: as §1, §2, §3, §4

[7] = oocytes, 100 μM glutamate and 30 μM glycine, read-out: GluN2D IC50
[8] = GluN2C and GluN2D receptors, read-out: IC50 values at GluN2C and GluN2D receptors, range over the alcohol compounds

| SMILES | IC50 [1, 7] [nM] | 2A IC50 / 2D IC50 ([2]; ratio of IC50 values) | 2B IC50 / 2D IC50 ([2]; ratio of IC50 values) | IC50 [3] [µM] | IC50 [4] [nM] | IC50 ([1]; read-out: IC50 at GluN2D-containing receptors) [nM] | IC50 [1, 8] [nM] | fold decrease of activity in comparison to 997-95 ([2]; comparator 997-95) [fold] | GluN2A IC50 [5] | GluN2B IC50 [6] | GluN2A IC50 ([5]; listed as 98) | GluN2B IC50 ([6]; listed as 98) |
| --- | --- | --- | --- | --- | --- | --- | --- | --- | --- | --- | --- | --- |
| O=C(CC(F)(F)CO)N1N=C(c2c(-c3ccc(Cl)cc3)c3ccccc3[nH]c2=O)CC1c1ccc(Cl)cc1 (stereo not drawn) [997-67, 4-(4-chlorophenyl)-3-[5-(4-chlorophenyl)-1-(3,3-difluoro-4-hydroxybutanoyl)-4,5-dihydro-1H-pyrazol-3-yl]quinolin-2(1H)-one] | – | – | – | – | – | – | 800 to 2000 | – | NE (NE indicates less than 50% inhibition at 30 μM.) | NE (NE indicates less than 50% inhibition at 30 μM.) | – | – |
| O=C(O)CCC(=O)N1N=C(c2c(-c3ccncc3)c3ccccc3[nH]c2=O)CC1c1ccc(Cl)cc1 (stereo not drawn) [997-82, 4-(5-(4-chlorophenyl)-3-(2-oxo-4-(pyridin-4-yl)-1,2-dihydroquinolin-3-yl)-4,5-dihydro-1H-pyrazol-1-yl)-4-oxobutanoic acid] | – | – | – | – | – | – | – | – | NE (NE indicates less than 50% inhibition at 30 μM.) | NE (NE indicates less than 50% inhibition at 30 μM.) | – | – |
| O=C(O)CCC(=O)N1N=C(c2ccccc2-c2ccc(Cl)cc2)CC1c1ccc(Cl)cc1 (stereo not drawn) [997-99, 4-(3-(4′-chloro-[1,1′-biphenyl]-2-yl)-5-(4-chlorophenyl)-4,5-dihydro-1H-pyrazol-1-yl)-4-oxobutanoic acid] | 12000 | – | – | 16 | – | – | – | – | NE (NE indicates less than 50% inhibition at 30 μM.) | NE (NE indicates less than 50% inhibition at 30 μM.) | – | – |
| Cc1ccc2[nH]c(=O)c(C3=NN(C(=O)CC(F)(F)CO)C(c4ccc(Cl)cc4)C3)c(-c3ccc(Cl)cc3)c2c1 (stereo not drawn) [997-91, 4-(4-chlorophenyl)-3-[5-(4-chlorophenyl)-1-(3,3-difluoro-4-hydroxybutanoyl)-4,5-dihydro-1H-pyrazol-3-yl]-6-methylquinolin-2(1H)-one] | 4400 | – | – | 7.1 | – | – | – | – | NE (NE indicates less than 50% inhibition at 30 μM.) | NE (NE indicates less than 50% inhibition at 30 μM.) | – | – |
| O=C(O)CC(F)(F)C(=O)N1N=C(c2c(-c3ccc(F)cc3)c3ccccc3[nH]c2=O)CC1c1ccc(F)cc1 (stereo not drawn) [997-103, 3,3-difluoro-4-(5-(4-fluorophenyl)-3-(4-(4-fluorophenyl)-2-oxo-1,2-dihydroquinolin-3-yl)-4,5-dihydro-1H-pyrazol-1-yl)-4-oxobutanoic acid] | 3100 | – | – | 7 | – | – | – | – | NE (NE indicates less than 50% inhibition at 30 μM.) | NE (NE indicates less than 50% inhibition at 30 μM.) | – | – |
| O=C(O)CC(F)(F)C(=O)N1N=C(c2ccccc2-c2ccc(F)cc2F)CC1c1ccc(Cl)cc1 (stereo not drawn) [997-121, 4-(5-(4-chlorophenyl)-3-(2′,4′-difluoro-[1,1′-biphenyl]-2-yl)-4,5-dihydro-1H-pyrazol-1-yl)-3,3-difluoro-4-oxobutanoic acid] | 12300 | – | – | 13.5 | – | – | – | 2 | NE (NE indicates less than 50% inhibition at 30 μM.) | NE (NE indicates less than 50% inhibition at 30 μM.) | – | – |
| O=C(N1N=C(c2c(-c3ccc(Cl)cc3)c3ccccc3[nH]c2=O)CC1c1ccc(Cl)cc1)C(F)(F)CCO (stereo not drawn) [997-75, 4-(4-chlorophenyl)-3-[5-(4-chlorophenyl)-1-(2,2-difluoro-4-hydroxybutanoyl)-4,5-dihydro-1H-pyrazol-3-yl]quinolin-2(1H)-one] | 2000 | – | – | 17 | – | – | 800 to 2000 | – | NE (NE indicates less than 50% inhibition at 30 μM.) | NE (NE indicates less than 50% inhibition at 30 μM.) | – | – |
| O=C(O)CCC(=O)N1N=C(c2c(-c3ccc(F)cc3)c3ccccc3[nH]c2=O)CC1c1ccc(F)cc1 (stereo not drawn) [997-105, 4-(5-(4-fluorophenyl)-3-(4-(4-fluorophenyl)-2-oxo-1,2-dihydroquinolin-3-yl)-4,5-dihydro-1H-pyrazol-1-yl)-4-oxobutanoic acid] | 5100 | – | – | 6.7 | – | – | – | – | NE (NE indicates less than 50% inhibition at 30 μM.) | NE (NE indicates less than 50% inhibition at 30 μM.) | – | – |

Further lines, with some results ahead:

| IC50 [1, 7] [nM] | 2A IC50 / 2D IC50 ([2]; ratio of IC50 values) | 2B IC50 / 2D IC50 ([2]; ratio of IC50 values) | IC50 [3] [µM] | IC50 [4] [nM] | IC50 ([1]; read-out: IC50 at GluN2D-containing receptors) [nM] | IC50 [1, 8] [nM] | fold decrease of activity in comparison to 997-95 ([2]; comparator 997-95) [fold] | SMILES | GluN2A IC50 [5] | GluN2B IC50 [6] | GluN2A IC50 ([5]; listed as 98) | GluN2B IC50 ([6]; listed as 98) |
| --- | --- | --- | --- | --- | --- | --- | --- | --- | --- | --- | --- | --- |
| 200 | 150 | 14 | 0.5 | 2800 | – | – | – | NC(=O)CC(F)(F)C(=O)N1N=C(c2c(-c3ccc(Cl)cc3)c3ccccc3[nH]c2=O)CC1c1ccc(Cl)cc1 (stereo not drawn) [997-96, 4-(5-(4-chlorophenyl)-3-(4-(4-chlorophenyl)-2-oxo-1,2-dihydroquinolin-3-yl)-4,5-dihydro-1H-pyrazol-1-yl)-3,3-difluoro-4-oxobutanamide] | – | – | – | – |
| 343 | – | – | 1.44 | – | – | – | – | NC(=O)C(F)(F)CC(=O)N1N=C(c2c(-c3ccc(Cl)cc3)c3ccccc3[nH]c2=O)CC1c1ccc(Cl)cc1 (stereo not drawn) [997-115, 4-(5-(4-chlorophenyl)-3-(4-(4-chlorophenyl)-2-oxo-1,2-dihydroquinolin-3-yl)-4,5-dihydro-1H-pyrazol-1-yl)-2,2-difluoro-4-oxobutanamide] | NE (NE indicates less than 50% inhibition at 30 μM.) | NE (NE indicates less than 50% inhibition at 30 μM.) | – | – |
| – | – | – | 0.44 | – | 140 | – | – | O=C(O)CC(F)(F)C(=O)N1N=C(c2c(-c3ccc(Cl)cc3)c3ccccc3[nH]c2=S)CC1c1ccc(Cl)cc1 (stereo not drawn) [997-98, 4-(5-(4-chlorophenyl)-3-(4-(4-chlorophenyl)-2-thioxo-1,2-dihydroquinolin-3-yl)-4,5-dihydro-1H-pyrazol-1-yl)-3,3-difluoro-4-oxobutanoic acid] | inactive | inactive | NE (NE indicates less than 50% inhibition at 30 μM.) | NE (NE indicates less than 50% inhibition at 30 μM.) |
| 1400 | – | – | 4.3 | – | – | 800 to 2000 | – | O=C(CC(F)(F)CO)N1N=C(c2c(-c3cccc(F)c3)c3ccccc3[nH]c2=O)CC1c1ccc(Cl)cc1 (stereo not drawn) [997-68, 3-[5-(4-chlorophenyl)-1-(3,3-difluoro-4-hydroxybutanoyl)-4,5-dihydro-1H-pyrazol-3-yl]-4-(3-fluorophenyl)quinolin-2(1H)-one] | NE (NE indicates less than 50% inhibition at 30 μM.) | NE (NE indicates less than 50% inhibition at 30 μM.) | – | – |
